The values below come from patent publication US20030157715A1, “Modulation of chromosome function by chromatin remodeling agents” (priority 2000, published 2003).

For test [1], the target named is W9 probe (tandem repeats of an oligonucleotide with a 9 bp AT-tract). Description: DNase I footprinting on probe W9. The class given is binding. As to conditions: apparent binding affinity, DNase I footprinting, probe W9; read-out: Kdapp W9. From the text: DNase I cleavage pattern in the presence of P9 and P7. Ligand concentrations are indicated at the top of each lane. The position of each of the AT-tracts is indicated by square brackets. […] This probe is composed of head-to-tail tandem repeats of an oligonucleotide with a 9 bp AT-tract.
(§1) Synthetic oligonucleotides […] and […] were hybridized to obtain the W9 probe, oligomerized by ligation and digested with BamHI and BglII to obtain different tandem repeats. The following oligonucleotides were prepared identically: GAF31 is composed of the oligonucleotides […] and […] and, BrownI of oligonucleotides […] and […]. Fragments were purified on low-melt agarose gels and then cloned into a modified pSP64 vector, cut by BamHI and BglII. End-labeling was carried out following digestion with HindIII and a fill-in reaction with Klenow DNA polymerase. The labeled plasmid was cut with PvuII and the target fragments purified from low-melting agarose gels. The 657 bp EcoR1/Hinf1 fragment of the Drosophila histone SAR was cloned into the SmaI site of the modified pSP64 plasmid. This SAR probe was end-labeled following-digestion with EcoR1, then cut with ClaI and the resulting 347 bp fragment purified from low-melting agarose gels.
(§2) All reactions were performed in a total volume of 40 μl. A polyamide stock solution or buffer (for reference lanes) was added to an assay buffer containing 20 kcpm radiolabeled DNA, affording final concentrations of 10 mM Tris-HCl (pH 7.4), 10 mM KCl, 10 MM MgCl, 5 mM CaCl2, 0.5 mM EDTA, 0.5 mM EGTA, 1 mM DTT and 0.1% digitonine. The solutions were allowed to equilibrate for at least 2 h at room temperature. Footprinting reactions were initiated by the addition of 2 μl of a DNase stock solution (containing −100 μg DNase I in buffer) and allowed to proceed for 2 min at room temperature. The reactions were stopped by addition of 10 μl of a solution containing 1.25 M NaCl, 100 mM EDTA. Next, 5 μl of a 1% SDS solution was added, followed by 2 μl of a solution containing 1 μg poly(dA-dT), 1 μg salmon sperm DNA and 10 μg glycogen and the DNA was ethanol precipitated (20 min at −20 C.). The reactions were resuspended in 4 μl of 80% formamide loading buffer, denatured 10 min at 85 C., cooled on ice and electrophoresed on 8% polyacrylamide denaturing gels (5% cross-link, 8 M urea) at 30 W for 1 h. The gels were dried and exposed o/n at −70 C.

The next test relates to Drosophila histone SAR. Nature of the test: DNase I footprinting on SAR probe. It counts as binding. The following applies: for Ratio: Kdapp W9 / Kdapp SAR (SAR specificity factor); for Kd: apparent binding affinity, DNase I footprinting, SAR probe, read-out: Kdapp SAR. As to the method:
as §1, §2

Test [2] has as its system satellite III chromatin in Kc nuclei. As to conditions: previously reported (Kas and Laemmli, 1992); cited from earlier work.
The subject of test [3] is DNA satellites in Kc nuclei and polytene chromosomes. Nature of the test: Staining of Kc nuclei and polytene chromosomes with fluorescent polyamides. Set-up: species or system Drosophila. The following applies: isolated Kc nuclei and polytene chromosomes. How it is done: Kc Drosophila nuclei were isolated (Mirkovitch et al., 1984), diluted into XBE (10 mM Hepes, pH 7.7, 2 mM MgCl2, 0.1 mM CaCl2, 100 mM KCl, 5 mM EGTA and 50 mM sucrose), fixed with 0.8% fresh paraformaldehyde for 15 minutes and spun onto a round coverslip (10 mm) as described previously (Boy de la Tour and Laemmli, 1988). For washing and staining, coverslips were floated on 60 μl drops of XBE deposited on […]. After centrifugation coverslips were washed twice (1 minute), stained for 60 minutes, washed four times (1 minute) and then mounted in PPDI (5 mM Hepes pH 7.8, 100 mM NaCl, 20 mM KCl, 1 mM EGTA, 10 mM Mg SO4, 2 mM CaCl2, 78% glycerol, 1 mgr/ml paraphenylene diamine). FIG. (4) panel A was stained with 0.5 μM […] and 15 μM ethidium bromide (EB). Kc nuclei and polytene chromosomes were stained with fluorescent polyamides as described elsewhere (Janssen et al., 2000). For immunofluorescence, polytene glands were carefully dissected from bw^D or Canton S. flies in 1× PBS as described (Ashburner, 1989) Whole glands in sol P (1×PBS supplemented with 1 mM MgCl2 and 0.1% digitonin) were then incubated for 60 minutes with various concentrations of either P31, P9 or no compound at room temperature. P31 (not P9) induced redistribution of GAF during this incubation step. […] Images were recorded with a wide field, deconvolution-type imaging system from DeltaVision.

Turning to `CN(C)CCCNC(=O)CCNC(=O)c1cc(NC(=O)c2cc(NC(=O)c3cc(NC(=O)CCNC(=O)c4cc(NC(=O)c5cc(NC(=O)c6cc(NC(=O)CCNC(=O)c7cc(NC(=O)c8cc(NC(=O)c9cccn9C)cn8C)cn7C)cn6C)cn5C)cn4C)cn3C)cn2C)cn1C` [Compound P13, ((Py)3β)3Dp], the Kd in test [1] turned out to be 1 nM. In the test on Drosophila histone SAR, the Ratio stood at 0.8 and the Kd is 1.25 nM.
For the compound `CN(C)CCCNC(=O)CCNC(=O)c1cc(NC(=O)c2cc(NC(=O)c3cc(NC(=O)c4cc(NC(=O)c5cccn5C)cn4C)cn3C)cn2C)cn1C` [Compound P10, (Py)5βDp], the Kd in test [1] came to 80 nM. For the same compound, in the test on Drosophila histone SAR, the Ratio was determined as 2.3 and the Kd was 35 nM.
The like results for F*γ(Py)5βDp [Compound P10F] were, in that order, 3000 nM, 2.5 and 1200 nM.
Turning to `Cn1cc(NC(=O)c2cc(NC(=O)c3cc(NC=O)cn3C)cn2C)cc1C(=O)NCCC(=N)N` [distamycin], in test [2], the “chromatin opening at satellite III by distamycin” value is listed as “causes opening of the chromatin fiber”.
With (Py)3β(Py)3βD* [Compound P9F], the Kd in test [1] was 4 nM. In the test on Drosophila histone SAR, the Ratio is recorded as 4 and the Kd was found to be 1 nM. Further, the “increase of SAR specificity upon fluorescein tagging” value in the test on Drosophila histone SAR (tagged versus untagged compound) is listed as “about 4 fold”. The “main nuclear targets by epifluorescence staining” value in test [3] is “targets primarily satellite I and III”.
